A short description of series [1]: Bulk density and tapped density (Densi-tap tapping device). It is filed as physicochemical. Particulars: for Tapped density: after 3750 tappings; for Hausner ratio (HR) (ratio between tapped and bulk density): calculated from measured tapped and bulk densities; for Type of powder flow (flowability class from HR): classified from Hausner ratio; for Bulk density: powder without any processing, 10 mL glass cylinder. The method, then:
Bulk and tapped density were measured on a Densi-tap tapping device from Matec using a 10 mL glass cylinder and using powder without any processing. For tapped density the value is reported after 3750 tappings.

Series [2] is described as follows: Moisture sorption at 25° C. (dynamic vapor sorption, DVS). It is filed as physicochemical. Particulars: for Moisture picked up (mass change): range 0 to 95% RH at 25° C. The method, then:
Moisture sorption isotherm was collected on a multi sample instrument SPS-100n (Projekt Messtechnik, Ulm, Germany) operated in stepping mode at 25° C. The sample was allowed to equilibrate at 40% RH before starting a pre-defined humidity program 40-0-95-0-95-40% RH, steps of 5% RH and with a maximal equilibration time of 24 hours per step were applied. About 20 to 30 mg of each sample was used. The hygroscopic classification as disclosed herein is done according to the European Pharmacopeia Technical Guide (1999, page 86), that is, a material is classified as “not hygroscopic or “non-hygroscopic” when the increase in mass, as measured by the DVS method disclosed herein, is less than 0.2%; a material is classified as slightly hygroscopic, when the increase in mass is less than 2% and equal to or greater than 0.2% mass/mass; finally, a material is classified as hygroscopic, when the increase in mass is less than 15% and equal to or greater than 2% mass/mass. The mass change between 40% relative humidity and 80% relative humidity in the first adsorption scan was considered. Data shown are from the first upwards cycle.

Where [3] appears, read: listed as crystalline form 1 of ACT-539313.

In series [1], `Cc1ccc(C(=O)N2CCOC[C@H]2Cc2cccc(-n3nccn3)c2)c(-n2nccn2)c1` [ACT-539313 in crystalline form 1, (4-Methyl-2-[1,2,3]triazol-2-yl-phenyl)-[(R)-3-(3-[1,2,3]triazol-2-yl-benzyl)-morpholin-4-yl]-methanone] showed a Tapped density of 0.46 g/mL and a Bulk density of 0.31 g/mL. In addition, in series [1] (setting [3]), the “Hausner ratio (HR) (ratio between tapped and bulk density)” value is given as 1.47; the “Type of powder flow (flowability class from HR)” value is “very poor (“very poor” (HR from 1.46 to 1.59))”. Besides, in series [2] (cf. FIGS. 4 and 5, Tables 1 and 3), the “Hygroscopicity compared between solid forms” value is “less hygroscopic than the amorphous ACT-539313”. The “Moisture picked up (mass change)” value in series [2] is “Material picks up about 0.1%”.
As to `Cc1ccc(C(=O)N2CCOC[C@H]2Cc2cccc(-n3nccn3)c2)c(-n2nccn2)c1` [ACT-539313 in amorphous state, (4-Methyl-2-[1,2,3]triazol-2-yl-phenyl)-[(R)-3-(3-[1,2,3]triazol-2-yl-benzyl)-morpholin-4-yl]-methanone], in series [1] (listed as amorphous ACT-539313), the Tapped density was found to be 0.13 g/mL and the Bulk density is listed as 0.06 g/mL. For the same compound, in series [1] (listed as amorphous material), the “Hausner ratio (HR) (ratio between tapped and bulk density)” value is 2.26; the “Type of powder flow (flowability class from HR)” value was “very, very poor (“very, very poor” (HR>1.60))”. The “Hygroscopic classification according to Ph. Eur.” value in series [2] (DVS at 25° C., mass change between 40% and 80% RH, first adsorption scan) is “slightly hygroscopic according to (classified as slightly hygroscopic, when the increase in mass is less than 2% and equal to or greater than 0.2% mass/mass)”. The “Moisture picked up (mass change)” value in series [2] is recorded as ~2.6% of moisture in the range 0.

Source of the values: patent US20240116913A1, “A CRYSTALLINE FORM OF (4-METHYL-2-[1,2,3]TRIAZOL-2-YL-PHENYL)-[(R)-3-(3-[1,2,3]TRIAZOL-2-YL-BENZYL)-MORPHOLIN-4-YL]-METHANONE” (Idorsia Pharmaceuticals Ltd, priority 2021, published 2024).
